Results as given in US7019026B1, “Modulators of Protein Tyrosine Phosphatases (PTPases)” (Novo Nordisk A/S, priority 1999, dated 2006).

Target: T1, truncated form of PTP1 B (corresponding to the first 321 amino acids) (Homo sapiens, UniProt P18031)
T1 construct: truncated form of PTP1 B (corresponding to the first 321 amino acids); made in house; host or cells: E. coli
T1 sequence (P18031 1-321): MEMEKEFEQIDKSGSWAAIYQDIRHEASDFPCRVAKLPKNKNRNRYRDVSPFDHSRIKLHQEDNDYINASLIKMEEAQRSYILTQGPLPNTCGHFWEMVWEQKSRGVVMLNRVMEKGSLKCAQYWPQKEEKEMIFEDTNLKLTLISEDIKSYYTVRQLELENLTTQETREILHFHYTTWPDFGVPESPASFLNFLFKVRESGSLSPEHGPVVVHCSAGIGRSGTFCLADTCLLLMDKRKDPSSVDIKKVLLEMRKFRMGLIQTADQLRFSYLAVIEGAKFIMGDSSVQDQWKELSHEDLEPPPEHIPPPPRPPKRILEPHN
Assay: Inhibition of PTP1B (p-nitrophenyl phosphate substrate, enzyme kinetic analysis)
Type: biochemical
Settings: truncated PTP1B expressed in E. coli; substrate p-nitrophenyl phosphate 0.16 to 10 mM; 50 mM HEPES pH 7.0; 60 minutes; read-out: PTP1B K1 values
Protocol: The compounds are evaluated for biological activity with a truncated form of PTP1 B (corresponding to the first 321 amino acids), which was expressed in E. coli and purified to apparent homogeneity using published procedures well-known to those skilled in the art. The enzyme reactions are carried out using standard conditions essentially as described by Burke et al. (Biochemistry 35; 15989–15996 (1996)). The assay conditions are as follows. Appropriate concentrations of the compounds of the invention are added to the reaction mixtures containing different concentrations of the substrate, p-nitrophenyl phosphate (range: 0.16 to 10 mM—final assay concentration). The buffer used was 50 mM HEPES pH 7.0, 100 mM sodium chloride, 0.1% (w/v) bovine serum albumin, 5 mM glutathione, and 1 mM EDTA.). The reaction was started by addition of the enzyme and carried out in microtiter plates at […] for 60 minutes. The reactions are stopped by addition of NaOH. The enzyme activity was determined by measurement of the absorbance at 405 nm with appropriate corrections for absorbance at 405 nm of the compounds and p-nitrophenyl phosphate. The data are analyzed using nonlinear regression fit to classical Michaelis Menten enzyme kinetic models. Inhibition is expressed as Ki values in μM.

| Compound | Ki [nM] |
| --- | --- |
| O=C(O)C(=O)Nc1sc2c(c1C(=O)O)CC(CN1C(=O)c3cccc(O)c3C1=O)OC2 (centres unmarked) [Example 4, 5-(4-Hydroxy-1,3-dioxo-1,3-dihydro-isoindol-2-ylmethyl)-2-(oxalyl-amino)-4,7-dihydro-5-H-thieno[2,3-c]pyran-3-carboxylic acid] | 1500 |
| O=C(O)C(=O)Nc1sc2c(c1C(=O)O)CCOC2CN1C(=O)CSC1=O (centres unmarked) [Example 23, 7-(2,4-Dioxo-Thiazolidin-3-ylmethyl)-2-(oxalyl-amino)-4,7-dihydro-5H-thieno[2,3-c]pyran-3-carboxylic acid] | 9700 |
| O=C(O)C(=O)Nc1sc2c(c1C(=O)O)CCOC2CN1C(=O)c2cccc(O)c2C1=O (centres unmarked) [Example 25, 7-(4-Hydroxy-1,3-dioxo-1,3-dihydro-isoindol-2-ylmethyl)-2-(oxalyl-amino)-4,7-dihydro-5H-thieno[2,3-c]pyran-3-carboxylic acid] | 7000 |
| COc1ccc2c(c1)C(=O)N(CC1OCCc3c1sc(NC(=O)C(=O)O)c3C(=O)O)C2=O (centres unmarked) [Example 26, 5-(5-Methoxy-1,3-dioxo-1,3-dihydro-isoindol-2-ylmethyl)-2-(oxalyl-amino)-4,7-dihydro-5H-thieno[2,3-c]pyran-3-carboxylic acid] | 1200 |
| O=C(O)C(=O)Nc1sc2c(c1C(=O)O)CCOC2CN1C(=O)c2cc3c(cc2C1=O)OCO3 (centres unmarked) [Example 27] | 3600 |
| O=C(O)C(=O)Nc1sc2c(c1C(=O)O)CCOC2CNC(=O)c1ccc2c(c1)OCO2 (centres unmarked) [Example 28, 7-(((Benzo[1,3]dioxole-5-carbonyl)amino)methyl)-2-(oxalyl-amino)-4,7-dihydro-5H-thieno[2,3-c]pyran-3-carboxylic acid] | 8200 |
| CC(=O)Nc1ccc(/C=C2\SC(=O)N(CC3OCCc4c3sc(NC(=O)C(=O)O)c4C(=O)O)C2=O)cc1 (centres unmarked) [Example 39, 7-(5-(4-Acetylamino-benzylidene)-2,4-dioxo-thiazolidin-3-ylmethyl)-2-(oxalyl-amino)-4,7-dihydro-5H-thieno[2,3-c]pyran-3-carboxylic acid] | 7500 |
| O=C(O)C(=O)Nc1sc2c(c1C(=O)O)CCOC2CN1C(=O)S/C(=C\c2c[nH]cn2)C1=O (centres unmarked) [Example 41, 7-(5-(1H-imidazol-4(5)-ylmethylene)-2,4-dioxo-thiazolidin-3-ylmethyl)-2-(oxalyl-amino)-4,7-dihydro-5H-thieno[2,3-c]pyran-3-carboxylic acid] | 1500 |

Next, values leading:

| Ki [nM] | Compound |
| --- | --- |
| 2300 | O=C(O)C(=O)Nc1sc2c(c1C(=O)O)CCOC2CN1C(=O)c2ccccc2S1(=O)=O (centres unmarked) [Example 46, 2-(Oxalyl-amino)-7-(1,1,3-trioxo-1,3-dihydro-1H-benzo[d]isothiazol-2-ylmethyl)-4,7-dihydro-5H-thieno[2,3-c]pyran-3-carboxylic acid] |
| 800 | O=C(O)C(=O)Nc1sc2c(c1C(=O)O)CCOC2COC1=NS(=O)(=O)c2ccccc21 (centres unmarked) [Example 47] |
| 1400 | O=C(O)C(=O)Nc1sc2c(c1C(=O)O)CCOC2CN1C(=O)C=C(c2ccccc2)S1(=O)=O (centres unmarked) [Example 49, 2-(Oxalyl-amino)-7-(1,1,3-trioxo-5-phenyl-1,3-dihydro-isothiazol-2-ylmethyl)-4,7-dihydro-5H-thieno[2,3-c]pyran-3-carboxylic acid] |
| 3000 | O=C(O)C(=O)Nc1sc2c(c1C(=O)O)CCOC2COC1=NS(=O)(=O)C(c2ccccc2)=C1 (centres unmarked) [Example 50, 7-(1,1-Dioxo-5-phenyl-1H-isothiazol-3-yloxymethyl)-2-(oxalyl-amino)-4,7-dihydro-5H-thieno[2,3-c]pyran-3-carboxylic acid] |
| 1300 | O=C(O)C(=O)Nc1sc2c(c1C(=O)O)CCOC2Cn1c(=O)c2ccccc2[s+]1[O-] (centres unmarked) [Example 55, 7-(1,3-Dioxo-1,3-dihydro-benzo[d]isothiazol-2-ylmethyl)-2-(oxalyl-amino)-4,7-dihydro-5H-thieno[2,3-c]pyran-3-carboxylic acid] |

Tested on: not given
Assay: not given
Settings: not given

| melting point [°C] | Compound |
| --- | --- |
| > 250 | O=C(O)C(=O)Nc1sc2c(c1C(=O)O)CCOC2CN1C(=O)S/C(=C\c2c[nH]cn2)C1=O (centres unmarked) [Example 41, 7-(5-(1H-imidazol-4(5)-ylmethylene)-2,4-dioxo-thiazolidin-3-ylmethyl)-2-(oxalyl-amino)-4,7-dihydro-5H-thieno[2,3-c]pyran-3-carboxylic acid] |
